According to patent US9714228B2, “Dihydrofuran derivatives as insecticidal compounds” (Syngenta Participations AG, priority 2010, dated 2017):

How the values were obtained:
Assay type in all cases: in vivo
Spodoptera littoralis [1] = assay: Spodoptera littoralis (systemic), salad grown on treated agar, eggs; settings: 120 h, application rate 12.5 ppm, checked 5 days after infestation (mortality, repellent effect, feeding behavior, growth regulation)
Text: Spodoptera littoralis (Systemic) (Egyptian Cotton Leaf Worm) Test compounds were applied by pipette into 24 well plates and mixed with agar. Salad seeds were placed on the agar and the multi well plate is closed by another plate which contains also agar. After 7 days the roots have absorbed the compound and the salad has grown into the lid plate. The salad leafs were now cut off into the lid plate. Spodoptera eggs were pipette through a plastic stencil on a humid gel blotting paper and the plate closed with it. The samples are checked for mortality, repellent effect, feeding behavior, and growth regulation 5 days after infestation. Application rate: 12.5 ppm

Spodoptera littoralis [2] = assay: Spodoptera littoralis, sprayed cotton leaf discs, L1 larvae; settings: foliar, 72 h, cotton leaf discs sprayed at 200 ppm, 3 days after treatment
Text: Spodoptera littoralis (Egyptian Cotton Leafworm): Cotton leaf discs were placed on agar in a 24-well microtiter plate and sprayed with test solutions at an application rate of 200 ppm. After drying, the leaf discs were infested with 5 L1 larvae. The samples were checked for mortality, feeding behavior, and growth regulation 3 days after treatment (DAT).

Heliothis virescens = assay: Heliothis virescens, eggs on treated artificial diet; settings: 96 h, 200 ppm (concentration in well 18 ppm), 4 days incubation
Experimental: Heliothis virescens (Tobacco Budworm): Eggs (0-24 h old) were placed in 24-well microtiter plate on artificial diet and treated with test solutions at an application rate of 200 ppm (concentration in well 18 ppm) by pipetting. After an incubation period of 4 days, samples were checked for egg mortality, larval mortality, and growth regulation.

Plutella xylostella = assay: Plutella xylostella, L2 larvae on treated artificial diet; settings: 144 h, 200 ppm (concentration in well 18 ppm), 6 days incubation
Experimental: Plutella xylostella (Diamond Back Moth): 24-well microtiter plate (MTP) with artificial diet was treated with test solutions at an application rate of 200 ppm (concentration in well 18 ppm) by pipetting. After drying, the MTPs were infested with L2 larvae (7-12 per well). After an incubation period of 6 days, samples were checked for larval mortality and growth regulation.

Diabrotica balteata = assay: Diabrotica balteata, L2 larvae on treated artificial diet; settings: 120 h, 200 ppm (concentration in well 18 ppm), 5 days incubation
Experimental: Diabrotica balteata (Corn Root Worm): A 24-well microtiter plate (MTP) with artificial diet was treated with test solutions at an application rate of 200 ppm (concentration in well 18 ppm) by pipetting. After drying, the MTPs were infested with L2 larvae (6-10 per well). After an incubation period of 5 days, samples were checked for larval mortality and growth regulation.

Thrips tabaci = assay: Thrips tabaci, sprayed sunflower leaf discs; settings: foliar, 168 h, sunflower leaf discs sprayed at 200 ppm, mixed ages, mortality after 7 days
Experimental: Thrips tabaci (Onion Thrips): Sunflower leaf discs were placed on agar in a 24-well microtiter plate and sprayed with test solutions at an application rate of 200 ppm. After drying, the leaf discs were infested with an […] population of mixed ages. After an incubation period of 7 days, samples were checked for mortality.

Myzus persicae = Myzus persicae (sachet), mixed population, sucrose solution; settings: 120 h, application rate 12.5 ppm, mortality 5 days after infestation
Text: Myzus persicae (Sachet) (Green Peach Aphid) Mixed Population Test compounds were applied by pipette into 24 well plates and mixed with Sucrose solution. The plates were closed with a stretched Parafilm. A plastic stencil with 24 holes is placed onto the plate and infested pea seedlings were placed directly on the Parafilm. The infested plate is closed with a gel blotting paper and another plastic stencil and then turned upside down. 5 days after infestation the samples were checked on mortality. Application rate: 12.5 ppm.

Tetranychus urticae = assay: Tetranychus urticae, sprayed bean leaf discs; settings: foliar, 192 h, bean leaf discs sprayed at 200 ppm, mixed ages, checked 8 days later
Text: Tetranychus urticae (Two-Spotted Spider Mite): Bean leaf discs on agar in 24-well microtiter plates were sprayed with test solutions at an application rate of 200 ppm. After drying, the leaf discs are infested with mite populations of mixed ages. 8 days later, discs are checked for egg mortality, larval mortality, and adult mortality.

Cc1cc(C2=COC(c3cc(Cl)cc(Cl)c3)(C(F)(F)F)C2)ccc1C(=O)NCC(F)(F)F (stereo not drawn) [Compound D1]
≥ 80%: pest or weed control at 12.5 ppm (Spodoptera littoralis [1]) | pest or weed control at 200 ppm (Spodoptera littoralis [2]) | pest or weed control at 200 ppm (Heliothis virescens) | pest or weed control at 200 ppm (Plutella xylostella) | pest or weed control at 200 ppm (Diabrotica balteata) | pest or weed control at 200 ppm (Thrips tabaci)

Cc1cc(C2=COC(c3cc(Cl)cc(Cl)c3)(C(F)(F)F)C2)ccc1C(=O)NCC1CCCO1 (stereo not drawn) [Compound D8]
≥ 80%: pest or weed control at 12.5 ppm (Spodoptera littoralis [1]) | pest or weed control at 200 ppm (Spodoptera littoralis [2]) | pest or weed control at 200 ppm (Heliothis virescens) | pest or weed control at 200 ppm (Plutella xylostella) | pest or weed control at 200 ppm (Diabrotica balteata) | pest or weed control at 12.5 ppm (Myzus persicae) | pest or weed control at 200 ppm (Thrips tabaci) | pest or weed control at 200 ppm (Tetranychus urticae)

Cc1cc(C2=COC(c3cc(Cl)cc(Cl)c3)(C(F)(F)F)C2)ccc1C(=O)NCc1ccccn1 (stereo not drawn) [Compound D15]
≥ 80%: pest or weed control at 12.5 ppm (Spodoptera littoralis [1]) | pest or weed control at 200 ppm (Spodoptera littoralis [2]) | pest or weed control at 200 ppm (Heliothis virescens) | pest or weed control at 200 ppm (Plutella xylostella) | pest or weed control at 200 ppm (Diabrotica balteata) | pest or weed control at 12.5 ppm (Myzus persicae) | pest or weed control at 200 ppm (Thrips tabaci) | pest or weed control at 200 ppm (Tetranychus urticae)

Cc1cc(C2=COC(c3cc(Cl)cc(Cl)c3)(C(F)(F)F)C2)ccc1C(=O)NC1(C)CSC1 (stereo not drawn) [Compound D18]
≥ 80%: pest or weed control at 200 ppm (Spodoptera littoralis [2]) | pest or weed control at 200 ppm (Heliothis virescens) | pest or weed control at 200 ppm (Plutella xylostella) | pest or weed control at 200 ppm (Diabrotica balteata) | pest or weed control at 12.5 ppm (Myzus persicae) | pest or weed control at 200 ppm (Thrips tabaci) | pest or weed control at 200 ppm (Tetranychus urticae)

Cc1cc(C2=COC(c3cc(Cl)cc(Cl)c3)(C(F)(F)F)C2)ccc1C(=O)NC1C[S+]([O-])C1 (stereo not drawn) [Compound D20]
≥ 80%: pest or weed control at 12.5 ppm (Spodoptera littoralis [1]) | pest or weed control at 200 ppm (Spodoptera littoralis [2]) | pest or weed control at 200 ppm (Heliothis virescens) | pest or weed control at 200 ppm (Plutella xylostella) | pest or weed control at 200 ppm (Diabrotica balteata) | pest or weed control at 12.5 ppm (Myzus persicae) | pest or weed control at 200 ppm (Thrips tabaci) | pest or weed control at 200 ppm (Tetranychus urticae)

Cc1cc(C2=COC(c3cc(Cl)cc(Cl)c3)(C(F)(F)F)C2)ccc1C(=O)NC1CSC1 (stereo not drawn) [Compound D21]
≥ 80%: pest or weed control at 12.5 ppm (Spodoptera littoralis [1]) | pest or weed control at 200 ppm (Spodoptera littoralis [2]) | pest or weed control at 200 ppm (Heliothis virescens) | pest or weed control at 200 ppm (Plutella xylostella) | pest or weed control at 200 ppm (Diabrotica balteata) | pest or weed control at 12.5 ppm (Myzus persicae) | pest or weed control at 200 ppm (Thrips tabaci) | pest or weed control at 200 ppm (Tetranychus urticae)

Cc1cc(C2=COC(c3cc(Cl)cc(Cl)c3)(C(F)(F)F)C2)ccc1C(=O)NC1CCC1 (stereo not drawn) [Compound D23]
≥ 80%: pest or weed control at 200 ppm (Spodoptera littoralis [2]) | pest or weed control at 200 ppm (Heliothis virescens) | pest or weed control at 200 ppm (Plutella xylostella) | pest or weed control at 200 ppm (Diabrotica balteata) | pest or weed control at 12.5 ppm (Myzus persicae) | pest or weed control at 200 ppm (Thrips tabaci) | pest or weed control at 200 ppm (Tetranychus urticae)

Cc1cc(C2=COC(c3cc(Cl)cc(Cl)c3)(C(F)(F)F)C2)ccc1C(=O)NC1CS(=O)(=O)C1 (stereo not drawn) [Compound D24, 4-[5-(3,5-Dichloro-phenyl)-5-trifluoromethyl-4,5-dihydro-furan-3-yl]-N-(1,1-dioxo-1lambda*6*-thietan-3-yl)-2-methyl-benzamide]
≥ 80%: pest or weed control at 12.5 ppm (Spodoptera littoralis [1]) | pest or weed control at 200 ppm (Spodoptera littoralis [2]) | pest or weed control at 200 ppm (Heliothis virescens) | pest or weed control at 200 ppm (Plutella xylostella) | pest or weed control at 200 ppm (Diabrotica balteata) | pest or weed control at 12.5 ppm (Myzus persicae) | pest or weed control at 200 ppm (Thrips tabaci) | pest or weed control at 200 ppm (Tetranychus urticae)
